Assays:
Format in all cases: functional
Staphylococcus aureus [1] = assay: Antibacterial activity against Staphylococcus aureus SH1000 in stationary phase assessed as reduction in cell viability at 4 times MIC after 2 hrs by time kill kinetic assay relative to control
Trichophyton rubrum = assay: Antifungal activity against Trichophyton rubrum infected in mouse assessed as reduction in fungal burden using light source at 42 J/cm'2 for 10 mins for 7 days; set-up: scale not given: the % may be the effect or the level left
Burkholderia cepacia = assay: Antibacterial activity against Burkholderia cepacia assessed as cell killing at 250 ug/ml after 15 mins followed by irradiation with paterson lamp at 100 J/cm'2 by serial ten fold dilution method
Staphylococcus aureus [2] = assay: Antibacterial activity against methicillin-resistant Staphylococcus aureus 180 assessed as planktonic cell killing at 50 ug/ml after 15 mins followed by irradiation with paterson lamp at 100 J/cm'2 by serial ten fold dilution method
Pseudomonas aeruginosa [3] = assay: Antibacterial activity against Pseudomonas aeruginosa ATCC 9027 assessed as planktonic cell killing using laser illumination at 15.5 J/cm'2
Pseudomonas aeruginosa [4] = assay: Antibiofilm activity against Pseudomonas aeruginosa ATCC 9027 assessed as decrease in cell viability using laser illumination at 13.2 J
Staphylococcus aureus [5] = assay: Antibiofilm activity against Staphylococcus aureus SH1000 assessed as inhibition of planktonic bacterial growth after 24 hrs by turbidity method; details: SH1000, 24 h
Staphylococcus aureus [6] = assay: Antibiofilm activity against Staphylococcus aureus SH1000 after 24 hrs by plate count method
Candida albicans [7] = assay: Antimicrobial activity against Candida albicans ATCC-MYA-273 assessed as reduction in planktonic cell viability at 0.5 uM irradiated with blue light at 12 J/cm'2 for 15 mins by ten fold serial dilution method
Staphylococcus aureus [8] = assay: Antibacterial activity against methicillin-resistant Staphylococcus aureus ATCC BAA-44 infected in porcine stratum corneum assessed as reduction in viable cells at 10 uM preincubated for 1 hr with bacteria prior to application of bacteria on skin incubated for 5 to 240 mins followed by irradiation with blue light
Candida albicans [9] = assay: Antibiofilm activity against Candida albicans ATCC-MYA-273 assessed as cell killing at 1 uM irradiated with blue light at 48 J/cm'2 for 4 hrs by microplate reader method
Staphylococcus aureus [10] = assay: Antibacterial activity against methicillin-resistant Staphylococcus aureus 180 assessed as planktonic cell killing at 5 ug/ml after 15 mins followed by irradiation with paterson lamp at 100 J/cm'2 by serial ten fold dilution method

For `N=C(NCCCCCCNC(=N)NC(=N)Nc1ccc(Cl)cc1)NC(=N)Nc1ccc(Cl)cc1` [CHLORHEXIDINE], the Activity (Staphylococcus aureus [1]) was 3 deltalog10CFU/ml.

`Cc1cc2nc3ccc(N(C)C)cc3[s+]c2cc1N.[Cl-]` [TOLONIUM CHLORIDE] was tested, and the Activity (Trichophyton rubrum) was 87%.

With `CN(C)c1ccc2nc3ccc(N(C)C)cc3[s+]c2c1.[Cl-]` [METHYLENE BLUE ANHYDROUS] the Activity (Burkholderia cepacia) was 100%, the Activity (Staphylococcus aureus [2]) was 100% and the Activity (Pseudomonas aeruginosa [3]) was 100%. For the same compound, the Activity (Pseudomonas aeruginosa [4]) was over 99.999%.

In the case of `C[N+](C)(C)CCCOc1ccc(-c2c3nc(cc4ccc([nH]4)c(-c4ccc(OCCC[N+](C)(C)C)cc4)c4nc(cc5ccc2[nH]5)C=C4)C=C3)cc1.[Cl-].[Cl-]` [EXEPORFINIUM CHLORIDE], the MIC (Staphylococcus aureus [5]) is reported as 1 µg/mL, the MBEC (Staphylococcus aureus [6]) is reported as 2 mg/L and the Activity (Candida albicans [7]) is reported as 6 deltalog10CFU/ml. For the same compound, the Activity (Staphylococcus aureus [1]) was “>=5 deltalog10CFU/ml”, the Activity (Staphylococcus aureus [8]) was 3.6 deltalog10CFU/ml and the Activity (Candida albicans [9]) was 5 deltalog10CFU/ml.

`C[n+]1ccc(-c2c3nc(c(-c4cc[n+](C)cc4)c4ccc([nH]4)c(-c4cc[n+](C)cc4)c4nc(c(-c5cc[n+](C)cc5)c5ccc2[nH]5)C=C4)C=C3)cc1.Cc1ccc(S(=O)(=O)[O-])cc1.Cc1ccc(S(=O)(=O)[O-])cc1.Cc1ccc(S(=O)(=O)[O-])cc1.Cc1ccc(S(=O)(=O)[O-])cc1` gave an Activity (Burkholderia cepacia) of 99.9% and an Activity (Staphylococcus aureus [10]) of 100%.

With `C[N+](C)(C)CCCOc1cccc(-c2c3nc(cc4ccc([nH]4)c(-c4cccc(OCCC[N+](C)(C)C)c4)c4nc(cc5ccc2[nH]5)C=C4)C=C3)c1.[Cl-].[Cl-]` the MIC (Staphylococcus aureus [5]) was 1 µg/mL, the MBEC (Staphylococcus aureus [6]) was 2 mg/L and the Activity (Staphylococcus aureus [1]) was “>=5 deltalog10CFU/ml”.

Compound Cetyltrimethylammonium bromide has an Activity (deltalog10CFU/ml) (Staphylococcus aureus [1]) of 3.

Source: ChEMBL document CHEMBL3822367, “Use of Photosensitizers in Semisolid Formulations for Microbial Photodynamic Inactivation” (2016)
